Test results published in PMC8447191, “Peptide Amphiphilic-Based Supramolecular Structures with Anti-HIV-1 Activity” (Bioconjugate Chemistry, 2021).
*1 amine or outer side, *2 acyl side, *3 side chain or, on linkers, in order; H or OH if unused. Where a SMILES comes first, the peptide text is derived from it. Side-chain parts run from the residue outwards. The star is where a group is joined. PEG28 = NCCOCCOCCOCCOCCOCCOCCOCCOCCOCCOCCOCCOCCOCCOCCOCCOCCOCCOCCOCCOCCOCCOCCOCCOCCOCCOCCOCCOCCC(=O)O; N(octadecyl)2 = CCCCCCCCCCCCCCCCCCN(CCCCCCCCCCCCCCCCCC)*; Suc = O=C(CCC(=O)[*:2])[*:1]

Legend:
MTT cytotoxicity assay = type: cell-based; conditions: human, HeLa-env cells, PAs coassembled with 5% FAM, 40-2.3 μM, absorbance 560 nm
Protocol: The metabolic activity of the cell line, related to the cytotoxic effect of the compounds to be tested, is measured after 24 h using the MTT assay. This assay is based on the metabolic reduction of 3-(4,5-dimethylthiazol-2-yl)-2,5-diphenyl-2H-tetrazolium bromide (MTT), carried out by the mitochondrial enzyme succinate dehydrogenase, in a colored compound of blue color (formazan) that can be monitored by absorbance spectroscopy at 560 nm, allowing determination of the mitochondrial functionality of the treated cells.
The HeLa-env cell line is seeded in 96-well plates with an initial density of 15,000 cells per well in 100 μL of culture medium (Dulbecco’s modified Eagle’s medium, DMEM, with 10% FBS added) and incubated for 24 h at 37 °C and 5% CO2 to allow their adhesion. The cell monolayers are washed with PBS, and then 100 μL of PAs formulations (peptide amphiphiles coassembled with 5% FAM) are added in a concentration range from 40 μM to 2.3 μM. The plates are kept in incubation for further 24 h.
At the end of the incubation time, the cells are incubated for 3 h with 1 mg/mL of MTT, dissolved in culture medium without FBS, to allow the formation of formazan crystals. Subsequently, 100 μL of DMSO are added to wells, stirring the plates for 30 min at room temperature to facilitate the complete dissolution of the crystals. Finally, the absorbance at 560 nm is measured in a microplate reader.
The results are expressed as relative percentage between absorbance of PA formulations against absorbance of its DMSO controls and CC50 and CC25 values are taken from dose–response curves.

[1] = Visual stability and aspect of POPC vesicles mixed with PAs (SAXS samples); type: physicochemical; conditions: POPC 20 mM + 2 mM PA, 0.5% DMSO
Protocol: In Figure 5A,B, we show the spectra corresponding to POPC 20 mM and POPC 20 mM + 2 mM PAs (all of them in the presence of 0.5% DMSO). The band centered at 1.2 nm^–1 and the secondary band at 3.2 nm^–1 were typical of unilamellar vesicles.[35]
The incorporation of PAs had some distinct consequences. The first and more obvious one is the distinction between stable and unstable systems.

HIV-1BaL = type: cell-based; conditions: HIV-1BaL, TZM-bl cells; peptide 10-0.00061 μM for 1 h at 37 °C before virus; luciferase after 48 h; sigmoid fit; mean of triplicates
Protocol: HIV-1BaL[52] was provided by the NIH AIDS Research & Reference Reagent Program (http://www.aidsreagent.org/). Viral stock was prepared by passage through activated PBMCs[53] for 11 days.
Luciferase-reporter HeLa cells stably transfected to express CD4 and CCR5; TZM-bl cells[54]−[56] were grown in Dulbecco’s Minimal Essential Medium (DMEM) (Sigma-Aldrich, Inc., St. Louis, MO) containing 10% fetal calf serum (FCS), 2 mM L-glutamine, and antibiotics (100 U of penicillin/mL, 100 μg of streptomycin/mL) at 37 °C in an atmosphere containing 5% CO2.
All inhibition assays in cellular and tissue explants models were performed using a standardized amount of virus culture supernatant normalized for infectivity. TZM-bl cells were incubated with serial dilutions of peptides (from 10 μM to 0.00061 μM) for 1 h at 37 °C, prior to challenge with HIV-1BaL. Luciferase expression (r.l.u. values) was determined after 48 h. Alternatively, tissue explants were incubated with serial dilutions of peptide (from 100 μM to 0.1 μM) for 1 h before virus (10^4 TCID50/mL) was added for 2 h. Explants were then washed four times with PBS to remove unbound virus and drug. Colorectal explants were then transferred onto gelfoam rafts (Welbeck Pharmaceuticals, UK) and cultured for 15 days as described previously[57] […]. Explants were cultured for up to 15 days in the absence of peptide. Approximately 50% of the supernatants were harvested every 2–3 days and explants were re-fed with fresh media. The extent of viral replication in tissue explants was determined by measuring the p24 antigen concentration in supernatants (INNOTEST HIV antigen mAb; Fujirebio Europe, Belgium). The extent of inhibition by each peptide was calculated. The percentage of inhibition was normalized relative to the r.l.u, for TZM-bl cells, or p24, for tissue explants, values obtained for cells or explants cultured in the absence of virus (100% inhibition) and for cells or explants infected with virus in the absence of peptide (0% inhibition). Data are the mean (±SEM) of triplicates. When a dose–response curve was obtained, IC50 and, if possible, IC95 values were calculated from sigmoid curve fits (GraphPad Prism). For all curves, R^2 is >0.7.

For `CCCCCCCCCCCCCCCCCCN(CCCCCCCCCCCCCCCCCC)C(=O)CCC(=O)NCCOCCOCCOCCOCCOCCOCCOCCOCCOCCOCCOCCOCCOCCOCCOCCOCCOCCOCCOCCOCCOCCOCCOCCOCCOCCOCCOCCOCCC(=O)NCCCC[C@H](NC(=O)[C@H](Cc1c[nH]c2ccccc12)NC(=O)[C@H](CC(C)C)NC(=O)[C@H](Cc1ccc(O)cc1)NC(=O)[C@H](CCC(=O)O)NC(=O)[C@H](CC(C)C)NC(=O)[C@@H](NC(=O)[C@@H](N)Cc1c[nH]c2ccccc12)[C@@H](C)CC)C(=O)N[C@H](C(=O)N1CCC[C@H]1C(=O)N[C@@H](Cc1ccccc1)C(=O)N[C@@H](CC(=O)O)C(=O)N[C@@H](Cc1ccccc1)C(=O)N[C@@H](Cc1c[nH]c2ccccc12)C(=O)N[C@@H](CCCNC(=N)N)C(=O)NCC(=O)N[C@H](C(=O)N[C@H](C(N)=O)[C@@H](C)CC)C(C)C)C(C)C` [K-PAdialkyl] (H-WILEYLWK([PEG28-Suc-N(octadecyl)2])VPFDFWRGVI-NH2), the vesicular bilayer thickness was 9 nm, the CC50 at 24 h (MTT cytotoxicity assay) was > 40000 nM and the “stability / aspect of the sample” value [1] was “milky”. The IC50 (HIV-1BaL) was 50 nM.
